Data as given in article PMC3723356 (Journal of natural products, 2013).

Target: human δ-opioid receptor (Homo sapiens, UniProt P41143)
Test: [35S]-GTPγS functional assay
Assay type: biochemical
Settings: from [35S]-GTPγS assay

Sequence of human δ-opioid receptor (P41143 whole entry): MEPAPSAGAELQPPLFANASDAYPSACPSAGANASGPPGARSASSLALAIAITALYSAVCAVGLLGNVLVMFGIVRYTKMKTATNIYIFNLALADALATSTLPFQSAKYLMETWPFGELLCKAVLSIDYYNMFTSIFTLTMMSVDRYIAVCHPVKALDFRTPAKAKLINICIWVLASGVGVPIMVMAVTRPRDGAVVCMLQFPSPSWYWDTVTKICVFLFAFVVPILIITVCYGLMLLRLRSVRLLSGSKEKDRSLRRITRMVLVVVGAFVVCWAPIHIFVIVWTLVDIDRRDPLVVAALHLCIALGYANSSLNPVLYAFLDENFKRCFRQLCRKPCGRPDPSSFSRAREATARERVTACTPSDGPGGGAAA

Compound: COc1cc(O)c2c(c1)CC(=O)CCCC(=O)CCC[C@@H](C)OC2=O [Compound 4, neocosmosin C]
- classification of functional activity at the human δ-opioid receptor: full agonist
